Measured values: paper PMC10650850, “Discovery, Structure–Activity Relationship and In Vitro Anticancer Activity of Small-Molecule Inhibitors of the Protein–Protein Interactions between AF9/ENL and AF4 or DOT1L” (Cancers, 2023)
Entries after “also recorded” stand apart in the source; their conditions may differ. No end group written: not given here. *: point of attachment. Biotin = O=C1N[C@H]2[C@H](CS[C@H]2CCCCC(=O)*)N1; Ahx = NCCCCCC(=O)O

Experiments:
[1] = test system: HL60; assay: Antiproliferation assay (XTT), HL60; type: cell-based; conditions: Homo sapiens, HL-60, 168 h, 7 days incubation, read-out: Antitumor activity EC50, HL60;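 note: EC50 values in Micromolar not Nanomolar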
Protocol: (§1) The antitumor activity of selected compounds was evaluated against the proliferation of a panel of MLL-r leukemia and other cancer cells. MV4;11 and Molm-13 leukemia cells contain MLL-AF4 and MLL-AF9 fusion oncogenes, respectively. NB4 and HL60 are AML cells without MLL translocation. Hela (cervical cancer) is a solid tumor cell line. […] The anti-proliferation activity of these compounds against other AML cells (i.e., NB4 and HL60) might be due to their inhibition of SEC-mediated gene expression (e.g., Myc), as observed in our previous studies.
(§2) Proliferation inhibition assays were performed using an XTT assay kit (Biotium, Fremont, CA, USA) following our previous methods. The antiproliferation EC50 values were determined using Prism 5 and the reported results were the mean values of at least three independent experiments. The incubation time for all compounds was 7 days.

[2] = molecular target: T1, ENL-AF4 (Homo sapiens, UniProt Q03111); assay: AlphaLisa assay, ENL-AF4 interaction; type: binding; conditions: ENL AHD, AF4 peptide
T1 construct: ENL AHD domain (489–559); made in house; host or cells: E. coli BL21(DE3)
T1 sequence (Q03111 489-559): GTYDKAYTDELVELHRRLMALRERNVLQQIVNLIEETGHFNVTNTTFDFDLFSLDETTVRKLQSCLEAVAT
Protocol: (§3) Transcription cofactor AF4, which is the most frequent (~35%) fusion protein in MLL1-r leukemia, is another binding partner of AF9/ENL [35, 36, 37]. The AF9/ENL-AF4 interactions are essential for the formation of SEC, which causes aberrant gene expression in MLL-r leukemia and other AMLs. Using our previously developed AlphaLisa assays, selected compounds were tested for their ability to inhibit the PPIs between AF9 or ENL and AF4.
(§4) The cDNA for the human AF9 AHD domain (475–568) and ENL AHD domain (489–559) was synthesized (by Genscript, Piscataway, NJ, USA) and inserted into the pMAL c5X expression plasmid. The DOT1L peptide (Biotin-AHX-[…]) and AF4 peptide (Biotin-AHX-[…]) for the Alpha assay were purchased from Genscript.
(§5) Alpha assays were developed in our previous publication, using a Perkin-Elmer AlphaLisa anti-MBP kit, which contains streptavidin donor beads and anti-MBP acceptor beads. Briefly, the assay was performed using a MBP-protein (5 nM), a biotinylated peptide (40 nM), and increasing concentrations of a compound in 25 µL buffer (PBS with 0.5% BSA, pH 7.5) in 384-well plates according to the manufacturer’s protocol and measured with a Tecan SPARK microplate reader. Data were imported into Prism (version 5.0), and IC50 values from 3 independent experiments with standard deviation were obtained by using a standard dose-response curve fitting.

[3] = test system: HoxA9, Meis1 and Myc; assay: RT-qPCR of MLL target genes in Molm-13 cells; type: cell-based; conditions: 1 and 5 µM, 4 days
Source text: The major function of the SEC is to promote transcription elongation for its bound genes. Because of the high affinity of the PPIs between AF9/ENL and AF4, onco-MLL (e.g., MLL-AF4 or MLL-AF9/-ENL) recruits SEC to MLL target genes, facilitates their expression, and eventually causes leukemia initiation. Next, we investigated whether selected inhibitors of these PPIs can inhibit the expression of HoxA9, Meis1 and Myc, which are MLL target genes and their high expression is characteristic of MLL-r leukemia. In addition, high expression of Myc is also observed in a broad range of AMLs and other cancers and is considered a driving factor for oncogenesis. To this end, RNAs from the control and compound-treated Molm-13 cells (harboring MLL-AF9) were extracted and subjected to quantitative PCR. […] RNA extraction and RT-qPCR were performed following our previous method. 10^5 cells/mL were incubated with a compound for 4 days and the RNA was extracted using an RNeasy mini kit (#74104, Qiagen, Germantown, MD, USA). 100–1000 ng of total RNA was reverse transcribed using iScript™ Reverse Transcription Supermix (Bio-Rad, Hercules, CA, USA), using the manufacturer’s protocol. Quantitative real-time PCR was carried out using Fast SYBR Green Master Mix (Applied Biosystems, Waltham, MA, USA) according to the manufacturer’s instructions. Measurements were performed in triplicate using GAPDH as the reference gene. Real-time PCR was performed using the Biosystems Step One Plus detection system. The following sequences of primers were used: […]

[4] = molecular target: T2, AF9-DOT1L interaction (Homo sapiens, UniProt P42568); assay: Pull-down assay of AF9 AHD with DOT1L peptide-coated beads; type: binding
T2 construct: human AF9 AHD domain (475–568); made in house; host or cells: E. coli BL21(DE3)
T2 sequence (P42568 475-568): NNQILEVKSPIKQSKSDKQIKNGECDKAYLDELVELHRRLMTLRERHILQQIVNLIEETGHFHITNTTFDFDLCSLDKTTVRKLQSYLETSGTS
Source text: A pull-down assay was used to confirm that the strong inhibitors could disrupt the AF9-DOT1L interaction. Streptavidin agarose beads coated with biotinylated DOT1L peptide were used to pull-down the protein AF9 AHD in the solution, followed by thorough washing, SDS-PAGE (sodium dodecyl sulfate-polyacrylamide gel electrophoresis) and Western blotting to visualize and quantitate the protein. […] This alternative, non-optical method confirmed that compounds 24 and 50 can inhibit the PPI between AF9 and DOT1L.
The pull-down assays were conducted following our previous method. Briefly, the biotinylated DOT1L peptide (0.25 mg/mL) was incubated with streptavidin agarose beads (20 μL) in PBS containing 0.1% Triton X-100 (400 µL) for 3h to yield, after washing, DOT1L-coated beads. MBP-tagged AF9 AHD (0.2 µM, 400 µL) was pre-incubated with a compound for 1 h before adding to the beads. After 6 h incubation at 4 °C, the beads were collected, thoroughly washed, and subjected to SDS-PAGE and analyzed by Western blot using an MBP antibody (#2396, Cell signaling, Danvers, MA, USA).

[5] = test system: MV4;11; assay: Antiproliferation assay (XTT), MV4;11; type: cell-based; conditions: Homo sapiens, MV4-11, 168 h, 7 days incubation, read-out: Antitumor activity EC50, MV4;11;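 note: EC50 values in Micromolar not Nanomolar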
Protocol: as §1, §2

[6] = molecular target: T3, AF9-AF4 (Homo sapiens, UniProt P42568); assay: AlphaLisa assay, AF9-AF4 interaction; type: binding; conditions: AF9 AHD, AF4 peptide
T3 construct: human AF9 AHD domain (475–568); made in house; host or cells: E. coli BL21(DE3)
T3 sequence (P42568 475-568): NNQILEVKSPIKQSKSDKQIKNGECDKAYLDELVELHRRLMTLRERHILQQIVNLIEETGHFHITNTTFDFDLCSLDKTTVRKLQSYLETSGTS
Protocol: as §3, §4, §5

[7] = test system: panel of MLL-r leukemia and other cancer cells; assay: Antiproliferation assay (XTT), panel of MLL-r leukemia and other cancer cells; type: cell-based; conditions: 168 h, MV4;11, Molm-13, NB4 and HL60 cells, 7 days, read-out: Antitumor activity EC50, span over MLL-r leukemia and AML cells
Protocol: as §1, §2

[8] = test system: Molm13; assay: Antiproliferation assay (XTT), Molm-13; type: cell-based; conditions: Homo sapiens, MOLM-13, 168 h, 7 days incubation, read-out: Antitumor activity EC50, Molm13;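 note: EC50 values in Micromolar not Nanomolar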
Protocol: as §1, §2

[9] = molecular target: T2, AF9-DOT1L interaction; assay: AlphaLisa assay, AF9-DOT1L interaction; type: binding; conditions: MBP-protein 5 nM, biotinylated peptide 40 nM, 3 independent experiments with standard deviation, read-out: IC50 (μM) against the AF9-DOT1L interaction
How it was run: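 AlphaLisa proximity assay using MBP-tagged human AF9 AHD (475–568, 5 nM) on anti-MBP acceptor beads and biotinylated DOT1L peptide (40 nM) on streptavidin donor beads, in PBS with 0.5% BSA, pH 7.5. Compound titrated; IC50 from dose-response fits of 3 independent experiments.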

[10] = test system: NB4; assay: Antiproliferation assay (XTT), NB4; type: cell-based; conditions: Homo sapiens, NB-4, 168 h, 7 days incubation, read-out: Antitumor activity EC50, NB4;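 note: EC50 values in Micromolar not Nanomolar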
Protocol: as §1, §2

[11] = test system: Hela; assay: Antiproliferation assay (XTT), Hela; type: cell-based; conditions: Homo sapiens, HeLa, 168 h, 7 days incubation, read-out: Antitumor activity EC50, Hela
Protocol: as §1, §2

[12] = molecular target: T4, MBP-tagged ENL AHD domain (489–559) (human, UniProt Q03111 489-559); assay: AlphaScreen or HTRF; AlphaLisa (Perkin-Elmer anti-MBP kit): MBP-protein (5 nM) on anti-MBP acceptor beads, biotinylated peptide (40 nM) on streptavidin donor beads, increasing concentrations of a small-molecule compound, 25 µL PBS with 0.5% BSA, pH 7.5, 384-well plates; conditions: both partners purified
T4 construct: ENL (MLLT1), human, C-terminal AHD domain, residues 489-559; cDNA synthesized by Genscript and inserted into pMAL c5X; Expressed from pMAL c5X; the MBP tag is used for capture on anti-MBP acceptor beads; also called MBP-protein; source: E. coli BL21(DE3), purified (amylose resin, size exclusion Superdex 200); not shown: MBP, N-terminal, kept
T4 sequence (looked up): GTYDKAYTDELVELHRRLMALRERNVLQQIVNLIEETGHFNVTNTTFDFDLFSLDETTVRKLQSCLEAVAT

[13] = molecular target: T5, MBP-tagged AF9 AHD domain (475–568) (human, UniProt P42568 475-568); assay: as above; conditions: both partners purified
T5 construct: AF9 (MLLT3), human, C-terminal AHD domain, residues 475-568; cDNA synthesized by Genscript and inserted into pMAL c5X; Expressed from pMAL c5X; the MBP tag is used for capture on anti-MBP acceptor beads and for detection by an MBP antibody; also called MBP-protein; source: E. coli BL21(DE3), purified (amylose resin, size exclusion Superdex 200); not shown: MBP, N-terminal, kept
T5 sequence (looked up): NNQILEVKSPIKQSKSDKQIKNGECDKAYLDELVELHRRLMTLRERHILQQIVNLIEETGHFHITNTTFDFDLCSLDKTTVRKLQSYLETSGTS

Cl.O=C(NCC1CCNCC1)c1cc2cc(-c3ccc(N4CCCCC4)cc3)ccc2s1 [Compound 50, 5-(4-(Piperidin-1-yl)phenyl)-N-(piperidin-4-ylmethyl)-benzo[b]thiophene-2-carboxamide hydrochloride]
EC50 [1]: 9 ± 0.9 µM
IC50 [2]: 3.4 ± 0.4 µM
Expression of MLL target genes HoxA9, Meis1 and Myc (in words) [3]: inhibited expression; also recorded: able to reduce the expression
remaining activity at 10 µM ([4]; Western blot, compound 10 μM, read-out: AF9 AHD % Control): 27%
remaining activity at 50 µM ([4]; Western blot, compound 50 μM, read-out: AF9 AHD % Control): 29%
Effect on AF9 AHD bound to DOT1L peptide-coated beads (in words) ([4]; up to 50 µM): significantly reduced the amounts of AF9 AHD; also recorded: dose-dependently reduce AF9 AHD
EC50 [5]: 8.2 ± 1.2 µM
IC50 [6]: 2.5 ± 0.3 µM
EC50 [7]: 5.1 to 9.4 µM
EC50 [8]: 5.1 ± 0.2 µM
IC50 [9]: 2.5 ± 0.2 µM
EC50 [10]: 9.4 ± 1.2 µM
EC50 [11]: 25 ± 2.5 µM

B1: AF4 peptide (Biotin-AHX-QSLMVKITLDLLSRIPQPPGK) (peptide)
peptide: {Biotin-Ahx}-QSLMVKITLDLLSRIPQPPGK
notes: stretch of transcription cofactor AF4 (AFF1) with an LxVxIxLxxV/L motif; also called biotinylated AF4 peptide; source: synthetic peptide, bought: Genscript
binding result [12]: binds
binding result [13]: binds

B2: DOT1L peptide (Biotin-AHX-NKLPVSIPLASVVLPSRAERARST) (peptide)
peptide: {Biotin-Ahx}-NKLPVSIPLASVVLPSRAERARST
notes: stretch of histone H3K79 methyltransferase DOT1L with an LxVxIxLxxV/L motif; also called biotinylated DOT1L peptide; source: synthetic peptide, bought: Genscript
binding result [13]: binds
